{"source": "patent US9533982B2", "about": "“Substituted bicyclic heteroaryl carboxamide analogs as mGluR5 negative allosteric modulators” (Vanderbilt University, priority 2014, dated 2017)", "key": {"rat mGluR5": {"target": "T1, rat mGluR5 (Rattus norvegicus, UniProt P31424)", "T1 construct": "expressed in transfected cells", "T1 sequence (P31424 21-1171 isoform P31424-2 limits assumed)": "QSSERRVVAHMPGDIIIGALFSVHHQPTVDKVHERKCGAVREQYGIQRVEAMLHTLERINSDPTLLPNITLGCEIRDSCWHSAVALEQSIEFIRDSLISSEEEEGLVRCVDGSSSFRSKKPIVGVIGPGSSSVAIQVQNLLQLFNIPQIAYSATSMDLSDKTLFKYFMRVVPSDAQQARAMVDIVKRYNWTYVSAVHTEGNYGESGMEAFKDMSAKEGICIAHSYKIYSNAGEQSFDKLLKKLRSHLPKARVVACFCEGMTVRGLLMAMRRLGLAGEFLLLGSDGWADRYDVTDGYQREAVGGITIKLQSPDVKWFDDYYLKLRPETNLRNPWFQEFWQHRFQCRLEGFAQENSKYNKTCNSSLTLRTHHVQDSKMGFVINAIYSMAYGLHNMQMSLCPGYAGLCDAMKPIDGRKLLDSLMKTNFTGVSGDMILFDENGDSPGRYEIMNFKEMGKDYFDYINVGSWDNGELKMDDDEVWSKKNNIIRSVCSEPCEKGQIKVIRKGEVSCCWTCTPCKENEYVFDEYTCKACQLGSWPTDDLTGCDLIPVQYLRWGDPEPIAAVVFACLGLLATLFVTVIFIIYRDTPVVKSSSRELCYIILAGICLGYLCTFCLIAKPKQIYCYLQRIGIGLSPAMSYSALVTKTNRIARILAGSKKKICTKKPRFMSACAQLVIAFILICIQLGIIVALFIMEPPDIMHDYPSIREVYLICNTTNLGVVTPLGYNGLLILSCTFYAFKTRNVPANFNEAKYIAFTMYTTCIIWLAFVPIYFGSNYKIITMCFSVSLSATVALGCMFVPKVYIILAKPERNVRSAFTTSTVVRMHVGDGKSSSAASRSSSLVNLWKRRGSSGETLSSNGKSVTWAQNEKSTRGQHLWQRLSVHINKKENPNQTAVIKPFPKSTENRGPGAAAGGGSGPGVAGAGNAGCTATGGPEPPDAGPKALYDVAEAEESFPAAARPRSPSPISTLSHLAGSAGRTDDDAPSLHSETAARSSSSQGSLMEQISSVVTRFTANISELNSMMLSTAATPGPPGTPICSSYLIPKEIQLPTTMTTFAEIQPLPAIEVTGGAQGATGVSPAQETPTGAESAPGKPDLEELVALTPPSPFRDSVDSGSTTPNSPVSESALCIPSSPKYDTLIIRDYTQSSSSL", "experiment": "mGluR5 activity, cell-based Ca2+ fluorescence (FDSS) assay in human embryonic kidney cells transfected with rat mGluR5", "settings": "HEK cells transfected with rat mGluR5; antagonism of EC80 glutamate response; single experiment or average of two where no error is given", "protocol": "Human embryonic kidney (HEK) cells transfected with rat or human mGluR5 were plated in clear bottom assay plates for assay in a Functional Drug Screening System (FDSS). The cells were loaded with a Ca^2+-sensitive fluorescent dye (e.g., Fluo-4), and the plates were washed and placed in the FDSS instrument. Test compound was applied to cells 3 seconds after baseline readings were taken. Cells were incubated with the test compounds for 140 seconds and then stimulated with an EC20 concentration of an mGluR5 agonist (e.g., glutamate, 3,5-dihydroxyphenylglycine, or quisqualate); 60-80 seconds later an EC80 concentration of agonist was added and readings taken for an additional 40 seconds. Data were collected at 1 Hz. […] Concentration response curves were generated using a four parameter logistical equation.\nThe above described assay was operated in two modes. In the first mode (utilizing a triple add protocol), a range of concentrations of the present compounds were added to cells, followed by two single fixed concentrations of agonist (EC20 followed by EC80). If a compound acted as a potentiator, an EC50 value for potentiation of the EC20 response and a maximum extent of potentiation by the compound at this concentration of agonist was determined by non-linear curve fitting. If a compound acted as an antagonist, an IC50 value for antagonism of the EC80 response and a maximum extent of antagonism by the compound at this concentration of agonist was determined by non-linear curve fitting. In the second mode (utilizing a double add protocol), several fixed concentrations of the present compounds were added to various wells on a plate, followed by a range of concentrations of agonist for each concentration of present compound; the EC50 values for the agonist at each concentration of compound were determined by nonlinear curve fitting. A decrease in the EC50 value of the agonist with increasing concentrations of the present compounds (a leftward shift of the agonist concentration-response curve) is an indication of the degree of mGluR5 positive allosteric modulation at a given concentration of the present compound. An increase in the EC50 value of the agonist with increasing concentrations of the present compounds (a rightward shift of the agonist concentration response curve) is an indication of the degree of mGluR5 antagonism at a given concentration of the present compound. The second mode also indicates whether the present compounds also affect the maximum response to mGluR5 to agonists.\nThe mGluR5 activity was determined using the metabotropic glutamate receptor activity assays in human embryonic kidney cells as described herein, wherein the human embryonic kidney cells were transfected with rat mGluR5. The mGluR5 activity data for some compounds are shown as the average of at least three experiments with the standard error in these cases. If no error is indicated for the mGluR5 activity, the values given represent the results from a single experiment or the average of two experiments. The compounds in Table 1 were synthesized with methods identical or analogous to those shown herein. The requisite starting materials were commercially available, described in the literature, or readily synthesized by one skilled in the art of organic synthesis."}, "[1]": {"tested_on": "N-methyl-D-aspartate (NMDA) receptor", "settings": "at higher concentrations; cited from earlier work"}, "mGluR4": {"target": "mGluR4 (Homo sapiens, UniProt Q14833)", "sequence (Q14833 33-912)": "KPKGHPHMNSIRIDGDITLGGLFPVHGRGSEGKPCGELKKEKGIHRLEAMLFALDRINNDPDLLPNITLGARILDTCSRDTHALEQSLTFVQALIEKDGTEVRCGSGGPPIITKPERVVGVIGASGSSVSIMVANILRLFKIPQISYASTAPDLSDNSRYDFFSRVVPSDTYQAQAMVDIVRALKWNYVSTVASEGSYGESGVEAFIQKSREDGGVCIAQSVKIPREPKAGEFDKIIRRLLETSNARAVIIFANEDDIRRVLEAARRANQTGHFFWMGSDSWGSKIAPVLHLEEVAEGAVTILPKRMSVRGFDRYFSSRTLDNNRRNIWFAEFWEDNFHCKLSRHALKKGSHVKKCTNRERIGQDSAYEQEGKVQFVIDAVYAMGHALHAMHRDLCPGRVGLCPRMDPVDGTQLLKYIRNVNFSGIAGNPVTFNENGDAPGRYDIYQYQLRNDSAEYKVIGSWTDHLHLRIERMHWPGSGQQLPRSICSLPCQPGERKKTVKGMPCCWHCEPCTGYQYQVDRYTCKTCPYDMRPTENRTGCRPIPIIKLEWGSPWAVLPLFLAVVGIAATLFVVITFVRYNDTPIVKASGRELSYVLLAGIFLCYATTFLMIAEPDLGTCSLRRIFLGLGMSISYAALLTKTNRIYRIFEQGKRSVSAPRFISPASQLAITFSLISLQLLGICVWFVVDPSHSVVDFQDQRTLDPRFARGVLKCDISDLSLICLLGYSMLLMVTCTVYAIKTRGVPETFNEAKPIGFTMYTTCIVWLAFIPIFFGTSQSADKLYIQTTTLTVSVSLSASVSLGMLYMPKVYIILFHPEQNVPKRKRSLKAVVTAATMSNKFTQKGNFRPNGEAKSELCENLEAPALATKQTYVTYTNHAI", "settings": "cited from earlier work"}, "[2]": {"tested_on": "marble burying activity in mice", "settings": "literature reports; cited from earlier work"}, "cytochrome P450 1A2": {"target": "T2, cytochrome P450 1A2 (Homo sapiens, UniProt P05177)", "T2 sequence (P05177 1-516)": "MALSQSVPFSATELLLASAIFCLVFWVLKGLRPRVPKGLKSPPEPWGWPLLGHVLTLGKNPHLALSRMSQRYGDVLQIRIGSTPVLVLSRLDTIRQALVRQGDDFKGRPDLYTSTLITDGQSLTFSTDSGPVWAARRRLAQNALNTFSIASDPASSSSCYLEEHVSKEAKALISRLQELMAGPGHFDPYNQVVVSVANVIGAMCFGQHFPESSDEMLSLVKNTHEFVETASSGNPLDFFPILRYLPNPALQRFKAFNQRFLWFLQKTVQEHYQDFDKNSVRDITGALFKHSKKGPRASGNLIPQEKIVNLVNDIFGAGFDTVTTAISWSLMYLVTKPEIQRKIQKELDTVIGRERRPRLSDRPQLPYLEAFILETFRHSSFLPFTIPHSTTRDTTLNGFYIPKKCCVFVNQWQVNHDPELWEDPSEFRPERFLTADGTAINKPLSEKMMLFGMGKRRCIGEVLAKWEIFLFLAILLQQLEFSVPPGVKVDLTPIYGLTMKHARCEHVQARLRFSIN", "settings": "cited from earlier work"}, "[3]": {"settings": "intravenous administration to rhesus monkeys; cited from earlier work"}}}
{"smiles": "O=C(c1cncnc1)c1cc(C(=O)Nc2ccc(F)cn2)c2ncccc2c1", "values": [{"measurement": "IC50", "setting": "rat mGluR5", "result": 106, "unit": "nM"}]}
{"smiles": "O=C(c1cncnc1)c1cc(C(=O)Nc2ccc(Cl)cn2)c2ncccc2c1", "values": [{"measurement": "IC50", "setting": "rat mGluR5", "result": 148, "unit": "nM"}]}
{"smiles": "Cc1csc(NC(=O)c2cc(C(=O)c3cncnc3)cc3cccnc23)n1", "values": [{"measurement": "IC50", "setting": "rat mGluR5", "result": 73, "unit": "nM"}]}
{"smiles": "Cc1cccc(NC(=O)c2cc(C(=O)c3cncnc3)cc3cccnc23)n1", "values": [{"measurement": "IC50", "setting": "rat mGluR5", "result": 163, "unit": "nM"}]}
{"smiles": "O=C(c1cncnc1)c1cc(C(=O)Nc2cccc(F)n2)c2ncccc2c1", "values": [{"measurement": "IC50", "setting": "rat mGluR5", "result": 645, "unit": "nM"}]}
{"smiles": "O=C(c1cncnc1)c1cc(C(=O)Nc2cccc(Cl)n2)c2ncccc2c1", "values": [{"measurement": "IC50", "setting": "rat mGluR5", "result": 696, "unit": "nM"}]}
{"smiles": "O=C(c1cncc(F)c1)c1cc(C(=O)Nc2ccc(Cl)cn2)c2ncccc2c1", "values": [{"measurement": "IC50", "setting": "rat mGluR5", "result": "> 30000", "unit": "nM"}]}
{"smiles": "Cc1cccc(NC(=O)c2cc(C(=O)c3cncc(F)c3)cc3cccnc23)n1", "values": [{"measurement": "IC50", "setting": "rat mGluR5", "result": 1620, "unit": "nM"}]}
{"smiles": "Cc1csc(NC(=O)c2cc(C(=O)c3cncc(F)c3)cc3cccnc23)n1", "values": [{"measurement": "IC50", "setting": "rat mGluR5", "result": 444, "unit": "nM"}]}
{"smiles": "O=C(c1cncc(F)c1)c1cc(C(=O)Nc2cccc(Cl)n2)c2ncccc2c1", "values": [{"measurement": "IC50", "setting": "rat mGluR5", "result": "> 30000", "unit": "nM"}]}
{"smiles": "O=C(Nc1ccc(F)cn1)c1cc(C(F)c2cncnc2)cc2cccnc12", "note": "(stereo not drawn)", "values": [{"measurement": "IC50", "setting": "rat mGluR5", "result": 83, "unit": "nM"}]}
{"smiles": "Cc1csc(NC(=O)c2cc(C(F)c3cncnc3)cc3cccnc23)n1", "note": "(stereo not drawn)", "values": [{"measurement": "IC50", "setting": "rat mGluR5", "result": 127, "unit": "nM"}]}
{"smiles": "O=C(Nc1ccc(F)cn1)c1cc(C(F)(F)c2cncnc2)cc2cccnc12", "values": [{"measurement": "IC50", "setting": "rat mGluR5", "result": 109, "unit": "nM"}]}
{"smiles": "COC(c1cncnc1)c1cc(C(=O)Nc2ccc(F)cn2)c2ncccc2c1", "note": "(stereo not drawn)", "values": [{"measurement": "IC50", "setting": "rat mGluR5", "result": 890, "unit": "nM"}]}
{"smiles": "COC(c1cncnc1)c1cc(C(=O)Nc2nc(C)cs2)c2ncccc2c1", "note": "(stereo not drawn)", "values": [{"measurement": "IC50", "setting": "rat mGluR5", "result": 552, "unit": "nM"}]}
{"smiles": "Cc1csc(NC(=O)c2cc(C(C)c3cncnc3)cc3cccnc23)n1", "note": "(stereo not drawn)", "values": [{"measurement": "IC50", "setting": "rat mGluR5", "result": 258, "unit": "nM"}]}
{"smiles": "CC(c1cncnc1)c1cc(C(=O)Nc2ccc(F)cn2)c2ncccc2c1", "note": "(stereo not drawn)", "values": [{"measurement": "IC50", "setting": "rat mGluR5", "result": 540, "unit": "nM"}]}
{"smiles": "Cc1csc(NC(=O)c2cc(C(O)c3cncc(F)c3)cc3cccnc23)n1", "note": "(stereo not drawn)", "values": [{"measurement": "IC50", "setting": "rat mGluR5", "result": "> 30000", "unit": "nM"}]}
{"smiles": "O=C(c1cncnc1)c1cc(C(=O)Nc2ccc(F)cn2)c2nccnc2c1", "values": [{"measurement": "IC50", "setting": "rat mGluR5", "result": "> 10000", "unit": "nM"}]}
{"smiles": "Cc1csc(NC(=O)c2cc(C(=O)c3cncnc3)cc3nccnc23)n1", "values": [{"measurement": "IC50", "setting": "rat mGluR5", "result": 380, "unit": "nM"}]}
{"smiles": "O=C(c1cncnc1)c1cc(C(=O)Nc2ccc(Cl)cn2)c2nccnc2c1", "values": [{"measurement": "IC50", "setting": "rat mGluR5", "result": 176, "unit": "nM"}]}
{"smiles": "Cc1cccc(NC(=O)c2cc(C(=O)c3cncnc3)cc3nccnc23)n1", "values": [{"measurement": "IC50", "setting": "rat mGluR5", "result": 3090, "unit": "nM"}]}
{"smiles": "O=C(Nc1ccc(F)cn1)c1cc(C(F)c2cncnc2)cc2nccnc12", "note": "(stereo not drawn)", "values": [{"measurement": "IC50", "setting": "rat mGluR5", "result": "> 10000", "unit": "nM"}]}
{"smiles": "Cc1csc(NC(=O)c2cc(C(O)c3cncnc3)cc3cccnc23)n1", "note": "(stereo not drawn)", "values": [{"measurement": "IC50", "setting": "rat mGluR5", "result": "> 10000", "unit": "nM"}]}
{"smiles": "Cc1cccc(C#Cc2ccccc2)n1", "note": "[MPEP, 2-methyl-6-(phenylethynyl)pyridine]", "values": [{"measurement": "inhibition of NMDA receptor activity", "setting": "[1]", "result": "directly inhibit"}, {"measurement": "modulation of mGluR4", "setting": "mGluR4", "result": "positive allosteric modulator"}, {"measurement": "effect in the marble burying model", "setting": "[2]", "result": "effective"}]}
{"smiles": "Cc1nc(C#Cc2cccnc2)cs1", "note": "[MTEP, 3-[(2-methyl-1,3-thiazol-4-yl)ethynyl]pyridine]", "values": [{"measurement": "inhibition of cytochrome P450 1A2", "setting": "cytochrome P450 1A2", "result": "potent inhibitor"}, {"measurement": "clearance", "setting": "[3]", "result": "efficiently cleared"}]}
{"smiles": "CN1CC(=O)N=C1NC(=O)Nc1cccc(Cl)c1", "note": "[fenobam, 1-(3-chlorophenyl)-3-(1-methyl-4-oxo-4,5-dihydro-1H-imidazol-2-yl)urea]", "values": [{"measurement": "effect in the marble burying model", "setting": "[2]", "result": "effective"}]}
